T1: PTG (PPP1R3C) (Homo sapiens, UniProt Q9UQK1)
T1 construct: CBM21 domain, aa 134–259
T1 sequence (Q9UQK1 134-259): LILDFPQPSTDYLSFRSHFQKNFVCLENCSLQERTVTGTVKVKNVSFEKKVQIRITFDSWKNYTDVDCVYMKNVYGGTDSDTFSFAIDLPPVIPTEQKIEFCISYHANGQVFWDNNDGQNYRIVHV

T2: Glycogen synthase (GYS1) (Homo sapiens, UniProt P13807)
T2 construct: full-length GYS1 (aa 1–737) coexpressed with GYG1 aa 294–350 (GYS1–GYG1^ΔCD); with GYG1 (aa 294–350)
T2 sequence (P13807 1-737): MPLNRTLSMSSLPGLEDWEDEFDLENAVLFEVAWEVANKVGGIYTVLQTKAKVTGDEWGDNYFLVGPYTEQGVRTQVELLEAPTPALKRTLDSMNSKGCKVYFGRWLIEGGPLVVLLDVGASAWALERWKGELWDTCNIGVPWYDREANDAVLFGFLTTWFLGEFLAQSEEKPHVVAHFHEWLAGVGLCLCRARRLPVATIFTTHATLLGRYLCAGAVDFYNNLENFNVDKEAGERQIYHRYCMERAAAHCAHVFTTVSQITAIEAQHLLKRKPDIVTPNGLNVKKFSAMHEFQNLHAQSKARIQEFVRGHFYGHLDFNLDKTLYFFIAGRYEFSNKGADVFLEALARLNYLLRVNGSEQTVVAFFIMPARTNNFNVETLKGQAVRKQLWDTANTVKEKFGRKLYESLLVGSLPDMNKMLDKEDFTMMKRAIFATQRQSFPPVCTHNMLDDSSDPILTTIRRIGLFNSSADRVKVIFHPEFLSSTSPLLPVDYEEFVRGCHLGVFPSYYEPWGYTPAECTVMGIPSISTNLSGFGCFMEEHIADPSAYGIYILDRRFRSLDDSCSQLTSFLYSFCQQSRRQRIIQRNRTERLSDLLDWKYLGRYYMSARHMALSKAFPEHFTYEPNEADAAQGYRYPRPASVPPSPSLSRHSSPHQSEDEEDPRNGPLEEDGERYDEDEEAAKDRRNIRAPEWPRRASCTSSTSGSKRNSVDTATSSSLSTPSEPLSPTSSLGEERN
T2 sequence (P46976 294-350 partner): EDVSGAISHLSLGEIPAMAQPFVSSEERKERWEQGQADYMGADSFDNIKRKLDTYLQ

T3: GYS1–GYG1^FL complex (full-length human GYS1 with full-length glucosylated GYG1) (human, UniProt P13807 1-737; P46976-1 1-350, heterogeneous phosphorylation | glucosylated (GYG1 is attached with a glucose chain), heterogeneous)
T3 construct: human glycogen synthase GYS1, full length; human glycogenin-1 (GYG1), isoform GN-1L, UniProt P46976-1, full length; source: Sf9 cells, coexpressed, purified (Ni-Sepharose, Superose 6, TEV treatment); not shown: His6, N-terminal, cleaved
T3 sequence (looked up) 1: T2 sequence (P13807 1-737)
T3 sequence (looked up) 2: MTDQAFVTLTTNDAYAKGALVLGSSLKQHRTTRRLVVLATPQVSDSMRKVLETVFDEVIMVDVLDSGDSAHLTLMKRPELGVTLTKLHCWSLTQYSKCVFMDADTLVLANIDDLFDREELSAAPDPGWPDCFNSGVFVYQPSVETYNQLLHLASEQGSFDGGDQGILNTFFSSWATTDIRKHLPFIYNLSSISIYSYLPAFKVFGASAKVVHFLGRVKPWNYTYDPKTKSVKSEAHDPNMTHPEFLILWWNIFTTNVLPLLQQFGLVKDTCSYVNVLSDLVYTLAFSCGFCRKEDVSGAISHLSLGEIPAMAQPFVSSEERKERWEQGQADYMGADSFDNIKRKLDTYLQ

B1: human GYG1 C terminus, aa 294–350 (GYG1^ΔCD) (domain or fragment, UniProt P46976-1 294-350, looked up)
chain: T2 sequence (P46976 294-350 partner)
notes: human glycogenin-1 (GYG1), isoform GN-1L, UniProt P46976-1, amino acids 294–350, codon-optimized synthetic gene; Residues 317–349 were modelled in the cryo-EM map; The methods name MBP-His6, His6-GST and His6-GFP tags as tried; the results name His6-GST for the bicistronic constructs; also called GYG1 294–350; not shown: His6-GST, N-terminal, cleaved
B2: human glycogen synthase GYS1 (aa 1–737), untagged, as in the GYS1–GYG1^ΔCD complex (enzyme, UniProt P13807 1-737, looked up)
chain: T2 sequence (P13807 1-737)
modifications: multiply phosphorylated (intact mass spectrometry); phosphorylated Ser641 (site 3a) modelled in the inhibited state
notes: human glycogen synthase GYS1 (muscle isoform), amino acids 1–737, codon-optimized synthetic gene; Homotetramer (dimer of dimers) in the cryo-EM structures; source: Sf9 cells, coexpressed with His6-GST-GYG1 294–350 from a bicistronic construct, purified (Ni-Sepharose, Superose 6)
B3: human PTG (PPP1R3C) aa 134–259, CBM21 domain construct, His-tagged (domain or fragment, UniProt Q9UQK1 134-259, looked up)
chain: T1 sequence (Q9UQK1 134-259)
notes: The His6-tag is TEV-cleavable but was kept: the protein was captured on Talon resin by it; also called PTG(CBM21); His-PPP1R3C; source: cultured in autoinduction Terrific Broth, purified (Ni-Sepharose, Superdex 75); not shown: His6, N-terminal, kept

Assays:
[1] = molecular target: T1, PTG (PPP1R3C); experiment: thermal shift assay (no Kd); type: binding
[2] = molecular target: T1, PTG (PPP1R3C); experiment: thermal shift assay titration (AC50); type: binding
[3] = molecular target: T2, Glycogen synthase (GYS1); experiment: cryo-EM structure at […] Å with Glc6P and UDP-glc added (UDP-glc hydrolysed); type: binding
[4] = molecular target: T2, Glycogen synthase (GYS1); experiment: cryo-EM structures (7Q13 […] Å; also 7Q12, 7Q0S); thermal shift titration, AC50 of PP1c-dephosphorylated GYS1–GYG1^ΔCD; type: binding
[5] = molecular target: B2; experiment: cryo-EM structure; GYS1–GYG1^ΔCD at 0.75 or 0.5 mg ml^-1 in 25 mM HEPES pH 7.5, 200 mM NaCl, 2.0 mM TCEP, 0.05% Tween-20; as purified (inhibited state), with 5 mM Glc6P (inhibited-like and activated states), with 5 mM Glc6P and 5 mM UDP-Glc (activated state); D2 symmetry; conditions: both partners purified
[6] = molecular target: the molecule itself; experiment: as above
[7] = molecular target: T3, GYS1–GYG1^FL complex (full-length human …); experiment: pull-down; His-PPP1R3C (1.0 mg ml^-1) preincubated with GYS1–GYG1 complex (0.25 mg ml^-1) or GYG1 (0.5 mg ml^-1) for 30 min at 4 °C, captured on Talon resin in 25 mM HEPES pH 7.5, 100 mM NaCl, 1 mM TCEP, 0.2% Tween-20; wash with 10 mM imidazole; SDS-PAGE, Coomassie; conditions: both partners purified

OC[C@H]1O[C@H](O[C@H]2[C@H](O)[C@@H](O)[C@@H](O[C@H]3[C@H](O)[C@@H](O)[C@@H](O[C@H]4[C@H](O)[C@@H](O)C(O)O[C@@H]4CO)O[C@@H]3CO)O[C@@H]2CO)[C@H](O)[C@@H](O)[C@@H]1O (stereo partly shown) [maltotetraose]
thermal shift assay (no Kd) [1]: Glycogen, debranched glycogen, maltotetraose and maltoheptaose increased the thermostability of PTG(CBM21)

OC[C@H]1O[C@H](O[C@H]2[C@H](O)[C@@H](O)[C@@H](O[C@H]3[C@H](O)[C@@H](O)[C@@H](O[C@H]4[C@H](O)[C@@H](O)[C@@H](O[C@H]5[C@H](O)[C@@H](O)[C@@H](O[C@H]6[C@H](O)[C@@H](O)[C@@H](O[C@H]7[C@H](O)[C@@H](O)C(O)O[C@@H]7CO)O[C@@H]6CO)O[C@@H]5CO)O[C@@H]4CO)O[C@@H]3CO)O[C@@H]2CO)[C@H](O)[C@@H](O)[C@@H]1O (stereo partly shown) [maltoheptaose]
AC50 [2]: 2.4 ± 0.6 mM

OC[C@H]1OC(O)[C@H](O)[C@@H](O)[C@@H]1O (stereo partly shown) [GLC, glucose]
cryo-EM structure at 3.0 Å with Glc6P and UDP-glc added (UDP-glc hydrolysed) [3]: The hydrolysed glucose molecule formed multiple hydrogen bonds with the side chains of Arg211, Arg311, Glu510 and Tyr514

O=P(O)(O)OC[C@H]1OC(O)[C@H](O)[C@@H](O)[C@@H]1O (stereo partly shown) [Glc6P, glucose-6-phosphate]
AC50 [4]: 1.5 ± 0.2 mM

B1
stoichiometry N [5]: 1

B2
stoichiometry N [6]: 4

B3
binding result [7]: binds

Reference: PMC9287172, “Molecular basis for the regulation of human glycogen synthase by phosphorylation and glucose-6-phosphate” (Nature Structural & Molecular Biology, 2022)
